Measured values published in patent publication US11896843B2, “Photodynamic therapy devices, systems and methods” (NATIONAL UNIVERSITY OF SINGAPORE, priority 2018, dated 2024).

Legend:
[1] = system: ROS production; test: ROS production in vitro under direct LED illumination of other photosensitizers; details: compared with Ce6
From the text: The system can be adapted for use with other photosensitizers.

[2] = system: solid tumor from MB49 bladder cancer cells; test: Cancer PDT in C57 BL/6 mice bearing MB49 tumors, wireless light delivery; type: in vivo
Protocol: Treatments were administered on Day 3 (T1) and Day 9 (T2) with a light dose of 1.3 mW over 30 min. Graphs show mean±s.d. (n=5 per group). The light dose was set to the same level (1.3 mW, 30 min) as used in the in vitro experiments. Devices were implanted in the interstitial space around a solid tumor grown to 4-6 mm diameter from MB49 bladder cancer cells subcutaneously injected into the hind region. After a recovery period, PDT was performed by intratumoral injection of Ce6 followed 4 hours later by wireless delivery of the light dose. […] Control groups were left untreated; received Ce6 injections only, received sham devices only, or given light doses using functional devices without Ce6 injection. […] Monitoring of tumor volume ended 13 days after first treatment, beyond which tumors in the majority of the mice from control groups either reached ethical size limits or were ulcerated. […] Tumor volumes cleared by PDT at the prescribed light dose are consistent with light transport calculations and measurements.

[3] = system: MB49 cells; test: Cellular ROS production (Image-iT live Green ROS sensor fluorescence); type: cell-based, murine
Protocol: (§1) Using Ce6-incubated murine bladder cancer cells, ROS production was further validated against red laser irradiation, the current clinical standard, in two configurations: (i) cells directly exposed to the radio-frequency/laser source, and (ii) cells placed under thick (3 cm) porcine tissue, simulating light delivery to deep tissue regions.
(§2) FIGS. 18a to 18d illustrate test configurations for investigating ROS production. FIG. 18a illustrates a test configuration in which laser light is directly incident on the MB49 cells and FIG. 18 illustrates a test configuration in which the laser light travels through 3 cm of tissue. The laser illumination was carried out with the following intensity 37.5 mW/cm^2, 4 J/cm^2. FIG. 18c illustrates a test configuration in which a wirelessly powered implantable device is powered without intervening tissue. For this configuration near-field (NF) wireless powering was used. FIG. 18d illustrates a test configuration in which a wirelessly powered implantable device is powered without though 3 cm of tissue. For this configuration mid-field (MF) wireless powering was used.
FIGS. 21a to 21g show florescence images of treated cells and control cells. FIGS. 21a and 21b show cells treated following incubation with Ce6 and illuminated with respectively, the direct laser configuration and, the though tissue laser configuration. FIGS. 21c and 21d show cells treated following incubation with Ce6 and illuminated with respectively, the near field (direct) wireless configuration and, the though tissue (mid field) wireless configuration. FIGS. 21e to 21g show control scenarios. […] The results were obtained from a fluorogenic, cell-permeable ROS sensor (Image-iT live Green ROS).
In all cases, significant cell death resulted from oxidative stress.

[4] = system: ROS production; test: ROS production in Ce6 solution around device implanted in adult pig model; details: 5 μM Ce6 solution; device 5.1 cm deep on liver surface, wirelessly powered through tissue; vs control solution with no Ce6
Protocol: To illustrate that the implantable illumination devices could be powered through thick tissue at depths relevant to human scales, ROS production studies were conducted in an adult pig model.
FIGS. 16a to 16c show computed tomography (CT) reconstructions of the radio-frequency transmitter and device implanted an adult pig model.
The control (No Ce6) was a control solution with no Ce6 and the test solution was a solution containing 5 μM Ce6.

[5] = system: solid tumor from MB49 bladder cancer cells; test: Histology after a single round of PDT, wireless device versus direct laser illumination; type: in vivo, mice
Protocol: We compared the therapy to PDT by direct laser illumination, the current clinical standard, by histological examination of the tissue following a single round of treatment. […] The white lines labelled “T.B.” indicates a tissue boundary. Tumor-bearing mice were injected intratumorally with Ce6 and administered either the prior light dose using the wireless device or using a red laser (660 nm) collimated to a 5-mm diameter spot.

[6] = system: MB49 cells; test: Apoptosis index (TUNEL assay) in MB49 cells; type: cell-based, murine
Protocol: as §2
Cell death could be attributed to apoptosis, a widely accepted mechanism for PDT-mediated cytotoxicity. Apoptosis index (TUNEL assay) including positive and negative controls from the assay are shown.

[7] = system: C6 rat glioma cells; test: Cell kill in C6 rat glioma by UV light triggered PDT; type: cell-based; details: Ce6 PDT triggered by UV/violet light emitting devices, in vitro
[8] = system: ROS production; test: ROS production by Ce6 illuminated with wireless LED mesh device (405 nm or 660 nm); details: UV/violet (405 nm) light versus red (660 nm) light
From the text: Depending on the absorption spectrum of the photosensitizer used and the size of the tumor, the devices can be customized to emit a suitable light wavelength. The photosensitizer Ce6 (chlorin e6) has a strong absorption peak at 405 nm and a weaker one at 660 nm.
FIG. 33A is a graph showing production of reactive oxygen species (ROS) by Ce6 when illuminated using a wireless illumination device emitting red (660 nm) light. FIG. 33B is a graph showing production of reactive oxygen species (ROS) by Ce6 when illuminated using a wireless illumination device emitting UV/violet (405 nm) light.

[9] = system: MB49 cells; test: Cell viability (MTS assay) of Ce6-incubated MB49 cells after irradiation; type: cell-based, murine; details: for cell kill (MTS assay): 20 min irradiation, 1.3 mW
Protocol: as §1, §2
Change in cell viability (MTS assay) following 20 min of irradiation in the above light delivery configurations is shown. The light dosing rate was 1.3 mW throughout. Groups include untreated cells, cells exposed to Ce6 alone, cells exposed to light alone and cells incubated with Ce6 and exposed to light from a laser or the device with or without intervening tissue section.

[10] = intratumoral Ce6 + red laser (660 nm), 5-mm spot
[11] = intratumoral Ce6 + wireless device light dose

[Zn+2].c1ccc2c(c1)-c1nc-2nc2[n-]c(nc3nc([n-]c4nc(n1)-c1ccccc1-4)-c1ccccc1-3)c1ccccc21 [zinc phthalocyanine]
levels of ROS in vitro (normalized fluorescence) [1]: comparable levels of ROS

Chlorin e6 [Ce6]
body weight over the treatment period ([2]; across all groups of mice incl. Ce6 + wireless light): did not show appreciable weight loss
tumor volume as a function of time ([2]; intratumoral Ce6, wireless light dose 1.3 mW 30 min 4 hours later, two treatments, monitored to 13 days after first treatment, vs control groups): suppression, and in some cases complete regression, of tumors
apoptotic cells in resected tumors (TUNEL staining) ([2]; treatment group (Ce6 + wireless light) compared to control groups): significantly greater population of apoptotic cells
ROS-induced fluorescence signal ([3]; Ce6 + laser illumination, beam obstructed with thick tissue): insignificant ROS-induced fluorescence
ROS-induced fluorescence signal ([3]; Ce6 + laser illumination, direct irradiation): effective only under direct irradiation
ROS-induced fluorescence signal ([3]; Ce6 + wireless illumination, close proximity to radio-frequency source): increased signal
ROS-induced fluorescence signal ([3]; Ce6 + wireless illumination, through thick tissue): increased signal
ROS production ([3]; Ce6 exposure alone (no light)): did not result in significant ROS production
ROS production in Ce6 solution [4]: significant ROS production
apoptosis in explanted tumor tissues (TUNEL staining) [5, 10]: comparable apoptosis
damage in tissues adjacent to the tumor (TUNEL staining) [5, 10]: did not show significant damage
apoptosis in explanted tumor tissues (TUNEL staining) [5, 11]: comparable apoptosis
damage in tissues adjacent to the tumor (TUNEL staining) [5, 11]: did not show significant damage
apoptosis index (TUNEL assay) ([6]; Ce6 + laser, direct): high apoptosis
apoptosis index (TUNEL assay) ([6]; Ce6 + laser, through 3 cm tissue): low and comparable to the untreated control scenario
apoptosis index (TUNEL assay) ([6]; Ce6 + wireless device, direct (near-field)): high apoptosis
apoptosis index (TUNEL assay) ([6]; Ce6 + wireless device, through 3 cm tissue (mid-field)): high apoptosis
cell death [7]: about 80%
ROS yield [8]: ROS yield is higher
change in cell viability (MTS assay) ([9]; Ce6 + laser illumination obstructed by thick (3 cm) tissue, P=0.178): did not result in a significant difference in cell viability
change in cell viability (MTS assay) ([9]; Ce6 + laser illumination, direct): effective at reducing cell viability
cell kill (MTS assay) ([9]; Ce6 + wireless light delivery through thick (3 cm) tissue (mid-field), P=0.0039): ~80%
cell kill (MTS assay) ([9]; Ce6 + wireless light delivery, direct (near-field), P=0.0027): ~80%
